Reference: patent US20100130439A1, “GENOMIC MUTATION INHIBITORS THAT INHIBIT Y FAMILY DNA POLYMERASES” (priority 2007, published 2010)

Key:
[1] = system: triclosan-resistant mutants; test: MIC of isolated triclosan-resistant colonies; assay type: cell-based, E. coli; settings: Escherichia coli
Description: (§1) Characterization of mutants. The MICs were determined of over one hundred isolated antibiotic-resistant colonies. All of the ciprofloxacin-resistant mutants had MICs of 480 ng/mL (FIG. 2B). The ciprofloxacin resistance mutants contained a CG to TA transition translating into a Ser 83→Leu mutation in DNA gyrase. This mutation is known to provide the greatest ciprofloxacin resistance obtainable in a single step (Drlica K, Zhao X (1997) Microbiol Mol Biol Rev 61: 377-392).
The vast majority of isolated triclosan-resistant mutants (˜85%) had MICs of 16 μg/mL. These colonies had acquired a GC to TA transversion resulting in a Gly 93→Val mutation in FabI, the known protein target of triclosan (FIG. 2B). This mutation is known to produce the greatest triclosan resistance possible via a single step (McMurry L, Oethinger M, Levy S (1998) Nature 394: 531-532). […] It is, therefore, reasonable that the frequency of UV-induced triclosan-resistant mutants is considerably lower (˜8-fold) than the frequency of UV-induced ciprofloxacin-resistant mutants. The remaining triclosan-resistant mutants (˜15%) had MICs between 2-4 μg/mL. These included three different mutations of Phe 203 in FabI: a TA to CG transition giving serine, a TA to GC transversion giving valine, and a TA to GC transversion giving cystine (FIG. 2B). […]

[2] = system: wild-type and the isolated mutant cells; test: MIC of AZT against wild-type and isolated mutant cells; assay type: cell-based, E. coli
Description: as §1

[3] = system: most gram-negative bacteria; settings: Elwell et al. 1987; cited from earlier work
[4] = system: CC 102; test: MIC of AZT against CC102; assay type: cell-based, E. coli; settings: Escherichia coli, read-out: AZT MIC
Description: One strain, CC102, required a GC to AT transition.

[5] = system: wild-type MG1655 K12 E. coli; assay type: cell-based; settings: d4T 6 μg/mL
[6] = system: ciprofloxacin-resistant mutants; test: MIC of isolated ciprofloxacin-resistant colonies; assay type: cell-based, E. coli; settings: Escherichia coli
Description: as §1

## Oc1cc(Cl)ccc1Oc1ccc(Cl)cc1Cl [triclosan]
[1]; remaining (~15%) triclosan-resistant mutants (FabI Phe 203 mutations)
  MIC: 2 to 4 µg/mL
[1]; vast majority (~85%) of triclosan-resistant mutants (FabI Gly 93→Val)
  MIC: 16 µg/mL

## Cc1cn([C@H]2C[C@H](N=[N+]=[N-])[C@@H](CO)O2)c(=O)[nH]c1=O [AZT, 3′-azido-2′-deoxythymidine]
[2]; both the wild-type and the isolated ciprofloxacin-/triclosan-resistant mutant cells
  MIC: 0.01 µg/mL
[2]; several rifampicin-resistant mutants
  sensitivity to AZT: varying sensitivities
[3]
  antibacterial activity: antibacterial activity
[4]
  MIC: 0.02 µg/mL

## Cc1cn([C@H]2C=C[C@@H](CO)O2)c(=O)[nH]c1=O [d4T, 2′,3′-didehydro-3′-deoxythymidine]
[3]
  antibacterial activity: antibacterial activity
[5]
  UV-induced generation of mutations that confer resistance to ciprofloxacin: inhibits

## O=C(O)c1cn(C2CC2)c2cc(N3CCNCC3)c(F)cc2c1=O [ciprofloxacin]
[6]
  MIC: 0.48 µg/mL
